Source: article PMC6127857 (Journal of structural biology, 2018)

Key:
AmpKR2 [1] = target: AmpKR2 (Streptomyces nodosus, UniProt Q93NW7); assay: X-ray crystal structure, […] Å, co-crystallised; format: binding; conditions: ternary complex with 2-methyl-3-oxopentanoyl-pantetheine; 3 mM NADP+
AmpKR2 [2] = target: AmpKR2 (Streptomyces nodosus, UniProt Q93NW7, G2883T/Q2892H); assay: X-ray crystal structure, […] Å, co-crystallised; format: binding; conditions: ternary complex with 2-methyl-3-oxopentanoyl-pantetheine; 3 mM NADP+

NC(=O)c1ccc[n+]([C@@H]2O[C@H](COP(=O)(O)OP(=O)(O)OC[C@H]3O[C@@H](n4cnc5c(N)ncnc54)[C@H](OP(=O)(O)O)[C@@H]3O)[C@@H](O)[C@H]2O)c1 [NADP^+]
X-ray crystal structure, 1.80 Å, co-crystallised (AmpKR2 [1]): well-defined electron density for NADP^+ and 2-methyl-3-oxopentanoyl-pantetheine was observed in the active sites
X-ray crystal structure, 1.96 Å, co-crystallised (AmpKR2 [2]): both wild type AmpKR2 and its G355T/Q364H mutant
